Source: PubChem BioAssay (NCI)
Where “and” joins values, the source holds several entries; their conditions need not be identical. Equal entries are not always repeated.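 All cell lines were grown in 96-well plates and treated with compound for 48 hours. Abbreviation: GI50, concentration required for 50% inhibition of growth. TGI denotes the concentration required for complete inhibition of growth.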

How the values were obtained:
Assay in all cases: NCI tumour cell line growth inhibition, 48 h
ACHN renal = test system: ACHN renal
COLO 205 colon = test system: COLO 205 colon
HCT-116 colon = test system: HCT-116 colon
MOLT-4 leukemia = test system: MOLT-4 leukemia
NCI-H226 lung = test system: NCI-H226 lung
SN12C renal = test system: SN12C renal
SNB-75 CNS = test system: SNB-75 CNS
SR leukemia = test system: SR leukemia
UACC-62 melanoma = test system: UACC-62 melanoma

SMILES	TGI (ACHN renal)	TGI (COLO 205 colon)	TGI (HCT-116 colon)	TGI (MOLT-4 leukemia)	TGI (NCI-H226 lung)	TGI (SN12C renal)	TGI (SNB-75 CNS)	TGI (SR leukemia)	TGI (UACC-62 melanoma)	GI50 (ACHN renal)	GI50 (COLO 205 colon)	GI50 (HCT-116 colon) [nM]	GI50 (MOLT-4 leukemia) [nM]	GI50 (NCI-H226 lung)	GI50 (SN12C renal) [nM]	GI50 (SNB-75 CNS)	GI50 (SR leukemia)	GI50 (UACC-62 melanoma) [nM]
CCN(CC)c1ccc2c(c1)Nc1cc(=C(C#N)C#N)c3ccccc3c1=N2	> 100 µM	> 100 µM	> 100 µM	> 100 µM	> 100 µM	> 100 µM	> 100 µM	> 100 µM	> 100 µM	–	–	–	–	–	–	–	–	–
NC(=O)c1ccc(C2C3=C(CCCC3=O)OC3=C2C(=O)c2ccccc2C3=O)cc1 (stereo not given)	2.41 µM	1.41 µM	0.76 µM	1.4 µM	3.96 µM	1.17 µM	1.22 µM	5.73 µM	0.52 µM	1140 nM	351 nM	260	361	1890 nM	320	277 nM	0.771 µM	217
Cn1cc(CNCC2CCN(c3ncc(C(=O)NO)cn3)CC2)c2ccccc21	0.0962 µM	0.107 µM	0.0328 µM	> 52.7 µM	1.09 µM	15.7 µM	8.62 µM	> 53.9 µM	0.0415 µM	22.9 nM	< 10.4 nM	< 10	< 13.5	35.1 nM	34.4	< 10.8 nM	< 0.0124 µM	11.8
Cc1ccc(NC(=O)Cn2c(Br)nc3c2c(=O)n(C)c(=O)n3C)cc1	8.12 µM	19.3 µM	8.02 µM	> 100 µM	4.76 µM	10.8 µM	3.95 µM	35.5 µM	24.2 µM	2800 nM	5570 nM	2430	27900	2070 nM	3160	1430 nM	8.96 µM	11100
C=C=C(C(=O)OC)S(=O)c1ccc([N+](=O)[O-])cc1[N+](=O)[O-] (stereo not given)	> 68.5 µM	52.7 µM	50.3 µM	50.3 µM	> 100 µM	49 µM	> 69.7 µM	35.4 µM	> 71.4 µM	–	–	–	–	–	–	–	–	–
Nc1ccc(S(=O)(=O)NCc2nccs2)cc1	63.4 µM	32.7 µM	40.8 µM	69 µM	59 µM	37.8 µM	58.8 µM	> 100 µM	41.8 µM	–	–	–	–	–	–	–	–	–
O=Cc1ccc(-c2cccs2)s1	> 100 µM	54.8 µM	> 100 µM	> 100 µM	4.85 µM	> 100 µM	> 100 µM	> 100 µM	4.42 µM	–	–	–	–	–	–	–	–	–
CCOc1c(Cl)cc(CNC(C)C(O)c2ccccc2)cc1OC (stereo not given)	> 100 µM	35.9 µM	43.1 µM	85.7 µM	> 100 µM	> 100 µM	46.9 µM	52.5 µM	38.9 µM	23700 nM	19000 nM	19200	26000	33500 nM	38700	12700 nM	17.1 µM	17900
Nc1nc(CCC(=O)Nc2cccc(C(F)(F)F)c2)cc(-c2ccc3ccccc3c2)n1	> 100 µM	> 100 µM	> 100 µM	> 100 µM	> 100 µM	> 100 µM	> 100 µM	> 100 µM	> 100 µM	–	–	–	–	–	–	–	–	–
O=C([CH-]C(=O)C(F)(F)F)c1ccccc1.O=C([CH-]C(=O)C(F)(F)F)c1ccccc1.O=C([CH-]C(=O)C(F)(F)F)c1ccccc1.O=C([CH-]C(=O)C(F)(F)F)c1ccccc1.[Eu+3].c1ccncc1	> 100 µM	> 100 µM	71 µM	36.2 µM	79 µM	39.7 µM	> 100 µM	19.7 µM	63.3 µM	8710 nM	28800 nM	7530	4260	15600 nM	3740	6710 nM	3.86 µM	6670
CN[C@@H]1C[C@H]2O[C@@](C)([C@@H]1OC)n1c3ccccc3c3c4c(c5c6ccccc6n2c5c31)C(=O)N[C@@H]4O	–	0.691 µM	2.42 µM	0.0981 µM and 0.654 µM	0.3 µM and 0.477 µM	6.77 µM	0.0143 µM and 0.0271 µM	0.833 µM	0.908 µM	5.26 nM and < 15.1 nM	–	–	22.8	49.2 nM	–	3.22 nM	–	–
Cc1cc(N/N=C/c2nc(-c3ccc(Cl)cc3)oc2C)c2cc(Cl)ccc2n1	3.78 µM	6.57 µM	4.59 µM	9.11 µM	38.3 µM	4.16 µM	3.68 µM	4.84 µM	3.54 µM	1950 nM	2310 nM	2140	2340	17000 nM	1940	1680 nM	0.344 µM	1800
CN(C)C(=O)O[C@@H]1CN[C@@H](C#Cc2cc3ncnc(Nc4ccc(OCc5cccc(F)c5)c(Cl)c4)c3s2)C1	> 25 µM	> 25 µM	> 25 µM	> 21.8 µM	> 18.4 µM	> 25 µM	> 25 µM	> 25 µM	> 25 µM	18900 nM	> 25000 nM	> 25000	6730	9220 nM	8010	> 19400 nM	20.1 µM	> 25000
CNC(=S)N/N=C/c1ccc([N+](=O)[O-])s1	> 10 µM	8.55 µM	> 10 µM	> 10 µM	> 10 µM	> 10 µM	> 10 µM	> 10 µM	> 10 µM	–	–	–	–	–	–	–	–	–
COc1cc(Cn2c(-c3nonc3N)nc3ccccc32)ccc1C	> 93.8 µM	1.39 µM	> 100 µM	> 100 µM	> 100 µM	> 100 µM	1.13 µM	> 100 µM	> 100 µM	726 nM	337 nM	460	692	1910 nM	3690	248 nM	0.516 µM	848
Cc1ccc2c(c1)C(c1cccc3ccccc13)OC2=O (stereo not given)	> 100 µM	> 100 µM	> 100 µM	> 100 µM	> 100 µM	> 100 µM	> 100 µM	> 100 µM	> 100 µM	–	–	–	–	–	–	–	–	–
O=C1CC(=O)OC(c2ccc([N+](=O)[O-])cc2)O1	3.16 µM	3.41 µM	3.12 µM	8.41 µM	5.5 µM	4.23 µM	3.12 µM	9.09 µM	5.54 µM	1680 nM	1790 nM	1610	2660	2070 nM	1940	1440 nM	2.62 µM	2140
CC[C@@]1(O)C(=O)OCc2c1cc1n(c2=O)Cc2cc3cc(N)ccc3nc2-1	0.108 µM and 0.013 µM	2.86 µM and 1.26 µM	1.65 µM	0.143 µM	0.111 µM and 0.108 µM	0.243 µM and 0.123 µM	0.364 µM and 0.0446 µM	0.0236 µM	0.0393 µM and < 0.021 µM	–	61.8 nM and 102 nM	–	6.48	7.42 nM and 14.3 nM	14.2	–	0.0134 µM	2.12
CCN(CC)CCNc1n[n+]([O-])c2ccccc2[n+]1[O-]	18.4 µM and 21.1 µM	19.9 µM and 26 µM	26.6 µM and 31 µM	5.12 µM and 5.07 µM	23.7 µM and 29.9 µM	19.1 µM and 18.9 µM	45.3 µM and 55.4 µM	6.87 µM and 28.7 µM	22.2 µM and 21.2 µM	–	–	–	–	–	–	4070 nM and 14800 nM	2.92 µM and 6.7 µM	–
O=C1c2ccccc2-n2c1nc1ccccc1c2=O	29.3 µM	27.8 µM	79.6 µM	> 100 µM	> 80.1 µM	> 68.8 µM	83.8 µM	> 100 µM	14.5 µM	–	–	–	–	–	–	–	–	–
CC(C)[C@H]1C(=O)N[C@@H](CCCN=C(N)N)C(=O)NCC(=O)N[C@@H](CC(=O)O)C(=O)N[C@H](Cc2ccccc2)C(=O)N1C	> 100 µM	> 100 µM	> 33.4 µM	> 100 µM	> 100 µM	> 25.3 µM	0.279 µM	> 100 µM	> 100 µM	> 100000 nM	> 100000 nM	1860	> 100000	9210 nM	2330	120 nM	> 100 µM	> 100000
O=C(O)CSc1ncccc1[N+](=O)[O-]	> 100 µM	> 100 µM	> 100 µM	> 100 µM	> 100 µM	> 100 µM	> 100 µM	> 100 µM	> 100 µM	–	–	–	–	–	–	–	–	–
CCOC(=O)[C@H]1Nc2ccc(OC)cc2C2c3ccccc3CC21 (stereo not given in full)	> 100 µM	> 100 µM	> 100 µM	> 100 µM	> 100 µM	> 100 µM	> 100 µM	> 100 µM	> 100 µM	–	–	–	–	–	–	–	–	–
N#C[C@@H]1C(n2ccc(N)nc2=O)O[C@H](CO)[C@H]1O (stereo not given in full)	> 100 µM	> 100 µM	> 100 µM	> 100 µM	> 100 µM	> 100 µM	> 100 µM	> 100 µM	> 100 µM	1470 nM	8790 nM	2660	107	> 57000 nM	9690	> 100000 nM	7.31 µM	28000
CCOC(=O)COS(=O)(=O)C(F)(F)F	> 100 µM	> 100 µM	> 100 µM	> 100 µM	> 100 µM	> 100 µM	> 100 µM	49.1 µM	> 100 µM	–	–	–	–	–	–	–	–	–
